Source: patent US20100190788A1, “Amide derivatives as kinase inhitors” (priority 2005, published 2010)

What follows are compounds tested against T1, human ROCKα/ROCKII mix (Homo sapiens, UniProt O75116) (assay: ROCK inhibition, fluorescence polarization (FP) assay with ROCK IMAP Kit). Conditions: Table 1, compounds of Formula IV20.
T1 construct: purchased Upstate Biotechnology 14-451
Type: biochemical
Procedure: The compounds were tested for inhibition of human ROCKα/ROCKII mix.
The inhibition assays were performed with a fluorescence polarization (FP) assay using the commercially available ROCK IMAP Kit from Molecular Devices (Product ID. No. R8093), essentially in accordance with the protocol supplied by the manufacturer. […] The enzyme mix ROCKα/ROCKII was obtained from Upstate Biotechnology (Product ID No 14-451).
In summary, all compounds were screened in the wells of a 384 well plate for enzymatic inhibition with concentrations varying from 100 μM to 0.3 nM using a stepwise 3 (or 2)-fold dilution.
To perform the assay, 1 μl of a solution of the compound to be tested in DMSO (at each concentration) was added to 2 μl of a solution of the enzyme in 10 mM Tris-HCl, 10 mM MgCl2, 0.1% BSA, 0.05% NaN3, pH 7.2. The final concentration of the enzyme was 2.6 nM.
After incubating for 30 minutes at RT, 2 μl of a mixture of ATP and the protein substrate in 10 mM Tris-HCl, 10 mM MgCl2, 0.1% BSA, 0.05% NaN3, pH 7.2 was added. The final concentration of the ATP was 10 μM and final concentration of protein substrate was 0.2 μM.
After incubating for 60 minutes at RT, 12 μl of the IMAP Binding Solution (mix of the IMAP Binding Buffer A (1×) and the IMAP Binding Reagent (from the ROCK IMAP kit)) was added.
The mixture thus obtained (total volume: 17 μl) was incubated for 60 minutes at RT, upon which the fluorescence polarization was measured using an automated plate reader (Perkin Elmer, Model Envision 2100-0010 HTS) with FP filters: excitation filter FITC FP 480 and emission filters FITC FP P-pol 535 and FITC FP S-pol 535 (Perkin-Elmer). The results were fitted to a curve using the XL-Fit algorithm and IC50 values were calculated for each fitted curve, again using the XL-Fit algorithm.

T1 sequence (O75116 whole entry): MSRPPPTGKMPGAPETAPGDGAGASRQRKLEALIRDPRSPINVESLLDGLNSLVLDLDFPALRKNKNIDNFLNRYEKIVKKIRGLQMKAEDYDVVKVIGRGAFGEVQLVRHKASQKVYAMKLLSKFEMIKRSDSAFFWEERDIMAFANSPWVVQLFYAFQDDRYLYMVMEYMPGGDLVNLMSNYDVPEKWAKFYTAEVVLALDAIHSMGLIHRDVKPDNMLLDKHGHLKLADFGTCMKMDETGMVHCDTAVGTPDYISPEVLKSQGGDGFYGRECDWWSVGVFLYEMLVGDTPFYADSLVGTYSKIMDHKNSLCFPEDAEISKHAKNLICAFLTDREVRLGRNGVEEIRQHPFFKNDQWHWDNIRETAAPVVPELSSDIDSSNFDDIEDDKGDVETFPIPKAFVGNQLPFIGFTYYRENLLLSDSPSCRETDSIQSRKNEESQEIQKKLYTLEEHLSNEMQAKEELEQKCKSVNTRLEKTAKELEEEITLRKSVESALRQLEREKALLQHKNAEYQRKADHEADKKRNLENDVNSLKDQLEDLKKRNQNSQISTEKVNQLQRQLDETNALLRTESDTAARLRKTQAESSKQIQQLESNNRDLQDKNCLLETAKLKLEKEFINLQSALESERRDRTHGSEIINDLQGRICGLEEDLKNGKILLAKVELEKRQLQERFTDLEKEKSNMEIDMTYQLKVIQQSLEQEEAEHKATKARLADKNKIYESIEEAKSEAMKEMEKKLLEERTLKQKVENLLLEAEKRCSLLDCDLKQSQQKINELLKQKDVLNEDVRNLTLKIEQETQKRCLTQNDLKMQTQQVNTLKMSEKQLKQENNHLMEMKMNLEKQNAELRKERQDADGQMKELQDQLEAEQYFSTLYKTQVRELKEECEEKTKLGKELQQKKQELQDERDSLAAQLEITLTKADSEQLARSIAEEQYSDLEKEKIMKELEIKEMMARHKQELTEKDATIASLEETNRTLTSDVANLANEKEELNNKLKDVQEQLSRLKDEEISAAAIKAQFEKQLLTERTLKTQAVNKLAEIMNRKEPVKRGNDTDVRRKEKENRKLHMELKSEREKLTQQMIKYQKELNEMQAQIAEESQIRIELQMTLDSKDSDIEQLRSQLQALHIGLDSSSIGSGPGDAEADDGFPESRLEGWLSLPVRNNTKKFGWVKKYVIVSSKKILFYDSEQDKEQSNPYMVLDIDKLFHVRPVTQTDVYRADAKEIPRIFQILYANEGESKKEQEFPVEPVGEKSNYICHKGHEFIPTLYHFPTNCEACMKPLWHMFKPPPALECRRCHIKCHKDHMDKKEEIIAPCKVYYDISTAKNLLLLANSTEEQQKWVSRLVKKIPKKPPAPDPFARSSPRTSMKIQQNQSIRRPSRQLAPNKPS

| IC50 | SMILES |
| --- | --- |
| 0.5 to 5 µM | CONC(=O)C(N)c1ccc(C(=O)Nc2ccncc2)cc1 (stereo not drawn) [Compound 41, 4-(amino-methoxycarbamoyl-methyl)-N-pyridin-4-yl-benzamide] |
| 0.5 to 5 µM | CN(CCO)C(=O)C(N)c1ccc(C(=O)Nc2ccncc2)cc1 (stereo not drawn) [Compound 42, 4-{amino-[(2-hydroxy-ethyl)-methyl-carbamoyl]-methyl}-N-pyridin-4-yl-benzamide] |
| 0.5 to 5 µM | COCC(C)NC(=O)C(N)c1ccc(C(=O)Nc2ccncc2)cc1 (stereo not drawn) [Compound 43, 4-[amino-(2-methoxy-1-methyl-ethylcarbamoyl)-methyl]-N-pyridin-4-yl-benzamide] |
| 0.5 to 5 µM | CN(C)CCNC(=O)C(N)c1ccc(C(=O)Nc2ccncc2)cc1 (stereo not drawn) [Compound 44] |
| 0.5 to 5 µM | NC(C(=O)NCCN1CCOCC1)c1ccc(C(=O)Nc2ccncc2)cc1 (stereo not drawn) [Compound 45, 4-[amino-(2-morpholin-4-yl-ethylcarbamoyl)-methyl]-N-pyridin-4-yl-benzamide] |
| 0.5 to 5 µM | CC(C)N1CCN(C(=O)C(N)c2ccc(C(=O)Nc3ccncc3)cc2)CC1 (stereo not drawn) [Compound 46, 4-[1-amino-2-(4-isopropyl-piperazin-1-yl)-2-oxo-ethyl]-N-pyridin-4-yl-benzamide] |
| 0.5 to 5 µM | NC(C(=O)N1CCN(c2ccccc2)CC1)c1ccc(C(=O)Nc2ccncc2)cc1 (stereo not drawn) [Compound 47, 4-[1-amino-2-oxo-2-(4-phenyl-piperzin-1-yl)-ethyl]-N-pyridin-4-yl-benzamide] |
| 0.5 to 5 µM | NC(C(=O)N1CCN(Cc2ccccc2F)CC1)c1ccc(C(=O)Nc2ccncc2)cc1 (stereo not drawn) [Compound 48, 4-{1-amino-2-[4-(2-fluoro-benzyl)-piperazin-1-yl]-2-oxo-ethyl}-N-pyridin-4-yl-benzamide] |
| 0.5 to 5 µM | NC(C(=O)N1CCN(Cc2ccc(F)cc2)CC1)c1ccc(C(=O)Nc2ccncc2)cc1 (stereo not drawn) [Compound 49, 4-{1-amino-2-[4-(4-fluoro-benzyl)-piperazin-1-yl]-2-oxo-ethyl}-N-pyridin-4-yl-benzamide] |
| 0.5 to 5 µM | COc1ccc(CN2CCN(C(=O)C(N)c3ccc(C(=O)Nc4ccncc4)cc3)CC2)cc1 (stereo not drawn) [Compound 50, 4-{1-amino-2-[4-(4-methoxy-benzyl)-piperazin-1-yl]-2-oxo-ethyl}-N-pyridin-4-yl-benzamide] |
| 0.5 to 5 µM | NC(C(=O)NC1CCN(Cc2ccccc2)CC1)c1ccc(C(=O)Nc2ccncc2)cc1 (stereo not drawn) [Compound 51, 4-{amino-[1-benzyl-piperidin-4-ylcarbamoyl]-methyl}-N-pyridin-4-yl-benzamide] |
| 0.5 to 5 µM | NC(C(=O)N1CCN(CCO)CC1)c1ccc(C(=O)Nc2ccncc2)cc1 (stereo not drawn) [Compound 52, 4-{1-amino-2-[4-(2-hydroxy-ethyl)-piperazin-1-yl]-2-oxo-ethyl}-N-pyridin-4-yl-benzamide] |
| 0.5 to 5 µM | Cc1ccc(CN2CCC(NC(=O)C(N)c3ccc(C(=O)Nc4ccncc4)cc3)CC2)s1 (stereo not drawn) [Compound 53, 4-{amino-[1-(5-methyl-thiophen-2-ylmethyl)-piperidin-4-ylcarbamoyl]-methyl}-N-pyridin-4-yl-benzamide] |
| < 0.5 µM | CCCCNNC(=O)C(N)c1ccc(C(=O)Nc2ccncc2)cc1 (stereo not drawn) [Compound 54, 4-[amino-(N′-butyl-hydrazinocarbonyl)-methyl]-N-pyridin-4-yl-benzamide] |

Same assay, conditions: Table 2, compounds of Formula V20

| IC50 | SMILES |
| --- | --- |
| < 0.5 µM | CS(=O)(=O)NCC(N)c1ccc(C(=O)Nc2ccncc2)cc1 (stereo not drawn) [Compound 55, 4-(1-amino-2-methanesulfonylamino-ethyl)-N-pyridin-4-yl-benzamide] |
| < 0.5 µM | CCS(=O)(=O)NCC(N)c1ccc(C(=O)Nc2ccncc2)cc1 (stereo not drawn) [Compound 56] |
| < 0.5 µM | CCCS(=O)(=O)NCC(N)c1ccc(C(=O)Nc2ccncc2)cc1 (stereo not drawn) [Compound 57, 4-[1-amino-2-(propane-1-sulfonylamino)-ethyl]-N-pyridin-4-yl-benzamide] |
| < 0.5 µM | CCCCS(=O)(=O)NCC(N)c1ccc(C(=O)Nc2ccncc2)cc1 (stereo not drawn) [Compound 58, 4-[1-amino-2-(butane-1-sulfonylamino)-ethyl]-N-pyridin-4-yl-benzamide] |
| 0.5 to 5 µM | CCCCCCCCS(=O)(=O)NCC(N)c1ccc(C(=O)Nc2ccncc2)cc1 (stereo not drawn) [Compound 59, 4-[1-amino-2-(octane-1-sulfonylamino)-ethyl]-N-pyridin-4-yl-benzamide] |
| < 0.5 µM | NC(CNS(=O)(=O)Cc1ccccc1)c1ccc(C(=O)Nc2ccncc2)cc1 (stereo not drawn) [Compound 60, 4-(1-amino-2-phenylmethanesulfonylamino-ethyl)-N-pyridin-4-yl-benzamide] |
| < 0.5 µM | NC(CNS(=O)(=O)c1ccccc1)c1ccc(C(=O)Nc2ccncc2)cc1 (stereo not drawn) [Compound 61, 4-(1-amino-2-benzenesulfonylamino-ethyl)-N-pyridin-4-yl-benzamide] |
| < 0.5 µM | Cc1ccc(S(=O)(=O)NCC(N)c2ccc(C(=O)Nc3ccncc3)cc2)cc1 (stereo not drawn) [Compound 62, 4-[1-amino-2-(4-methyl-benzenesulfonylamino)-ethyl]-N-pyridin-4-yl-benzamide] |
| < 0.5 µM | Cc1cccc(S(=O)(=O)NCC(N)c2ccc(C(=O)Nc3ccncc3)cc2)c1 (stereo not drawn) [Compound 63] |
| < 0.5 µM | Cc1ccccc1S(=O)(=O)NCC(N)c1ccc(C(=O)Nc2ccncc2)cc1 (stereo not drawn) [Compound 64, 4-[1-amino-2-(2-methyl-benzenesulfonylamino)-ethyl]-N-pyridin-4-yl-benzamide] |
| < 0.5 µM | NC(CNS(=O)(=O)c1ccc(F)cc1)c1ccc(C(=O)Nc2ccncc2)cc1 (stereo not drawn) [Compound 65, 4-[1-amino-2-(4-fluoro-benzenesulfonylamino)-ethyl]-N-pyridin-4-yl-benzamide] |
| < 0.5 µM | NC(CNS(=O)(=O)c1ccccc1F)c1ccc(C(=O)Nc2ccncc2)cc1 (stereo not drawn) [Compound 66, 4-[1-amino-2-(2-fluoro-benzenesulfonylamino)-ethyl]-N-pyridin-4-yl-benzamide] |
| < 0.5 µM | NC(CNS(=O)(=O)c1ccc(Cl)cc1)c1ccc(C(=O)Nc2ccncc2)cc1 (stereo not drawn) [Compound 67, 4-[1-amino-2-(4-chloro-benzenesulfonylamino)-ethyl]-N-pyridin-4-yl-benzamide] |
| < 0.5 µM | NC(CNS(=O)(=O)c1cccc(Cl)c1)c1ccc(C(=O)Nc2ccncc2)cc1 (stereo not drawn) [Compound 68, 4-[1-amino-2-(3-chloro-benzenesulfonylamino)-ethyl]-N-pyridin-4-yl-benzamide] |
| < 0.5 µM | NC(CNS(=O)(=O)c1ccccc1Cl)c1ccc(C(=O)Nc2ccncc2)cc1 (stereo not drawn) [Compound 69, 4-[1-amino-2-(2-chloro-benzenesulfonylamino)-ethyl]-N-pyridin-4-yl-benzamide] |
| < 0.5 µM | COc1ccc(S(=O)(=O)NCC(N)c2ccc(C(=O)Nc3ccncc3)cc2)cc1 (stereo not drawn) [Compound 70, 4-[1-amino-2-(4-methoxy-benzenesulfonylamino)-ethyl]-N-pyridin-4-yl-benzamide] |
| < 0.5 µM | COc1ccc(S(=O)(=O)NCC(N)c2ccc(C(=O)Nc3ccncc3)cc2)cc1OC (stereo not drawn) [Compound 71, 4-[1-amino-2-(3,4-dimethoxy-benzenesulfonylamino)-ethyl]-N-pyridin-4-yl-benzamide] |
| < 0.5 µM | COc1ccc(OC)c(S(=O)(=O)NCC(N)c2ccc(C(=O)Nc3ccncc3)cc2)c1 (stereo not drawn) [Compound 72, 4-[1-amino-2-(2,5-dimethoxy-benzenesulfonylamino)-ethyl]-N-pyridin-4-yl-benzamide] |
| 0.5 to 5 µM | NC(CNS(=O)(=O)c1cccc(Oc2ccccc2)c1)c1ccc(C(=O)Nc2ccncc2)cc1 (stereo not drawn) [Compound 73, 4-[1-amino-2-(3-phenoxy-benzenesulfonylamino)-ethyl]-N-pyridin-4-yl-benzamide] |
